Test results as given in patent US20210269479A1, “USE OF CY[…] FOR TREATING CANCER” (Hepion Pharmaceuticals, Inc., priority 2020, published 2021).
“Also recorded” adds a separate entry of the source.

Key:
[1] = tested on: human precision cut liver slices (PCLS); assay: Gene expression in PCLS by RT-PCR; type: cell-based; conditions: collagen1α1, αSMA, TIMP1, IL-6, MCP-1
Description: PCLS were obtained from 5 human donors who underwent resection of liver cancer. Replicate slices were collected from healthy margins of the resections and cultured for 4 or 6 days depending on the experimental protocol. In the Nonstimulation Protocol slices were cultured for 6 days and treated for the entire period with DMSO vehicle or 5 μM CRV431. In the Stimulation Protocol slices were rested for 1 day and then administered the cytokines, TGFβ and PDGF-BB, for 3 days to stimulate inflammation and fibrosis. DMSO vehicle, CRV431 (1 and 5 μM), Alk5i (10 μM), obeticholic acid (5 μM), elafibranor (5 μM), resmetirom (5 μM), and Aramchol (5 μM) were administered individually as drug treatments in the Stimulation Protocol concurrent with TGFβ+PDGF-BB. Culture medium treatments were replaced daily.
(c) Gene expression by RT-PCR. RNA was isolated from duplicate liver slices per treatment at the end of the experiments and evaluated by RT-PCR for 5 markers of inflammation and fibrosis: MCP-1, IL-6, TIMP1, αSMA, and collagen 1α1. β actin was used as a reference gene to calculate relative levels of each target gene RNA. […] Results are shown in FIG. 1C (gene expression by RT-PCR).

[2] = tested on: fibroblastic cells (IPF lung fibroblasts, cardiac fibroblasts, dermal fibroblasts, renal mesangial cells, LX2 hepatic stellate cell line); assay: Procollagen and fibronectin (ECM) secretion from fibroblastic cells, ELISA; type: cell-based
Excerpt: For example, as described herein, CRV431 can regulate oncogenes, and have anti-oncogenic activities. CRV431 can decrease production of the extracellular matrix (ECM) molecules, collagen and fibronectin, from fibroblastic cells derived from five cell types, including lung fibroblasts from a patient with idiopathic pulmonary fibrosis (“IPF”), cardiac fibroblasts, dermal (skin) fibroblasts, renal mesangial cells, and the LX2 hepatic stellate cell line. It is known that IPF is an aggressive fibrotic disease in tremendous need of new treatments. […] The extent of inhibition was similar whether or not the cells were stimulated with the profibrotic agent, transforming growth factor-beta (TGFβ), consistent with direct effects on ECM synthesis.

[3] = tested on: HepG2 hepatocellular carcinoma cells; conditions: 4 days, strongest with 0.37 μM daunorubicin and CRV431 0.25-4 μM
Description: (§1) HepG2 hepatocellular carcinoma cell lines and Huh7 hepatocellular carcinoma cell lines were plated in 96 well plates at subconfluent densities. The chemotherapy compound, daunorubicin, and CRV431 were applied alone or in combination at the indicated concentrations in duplicate wells for each treatment. After 4 days incubation, cell viability was assessed with Cell Titer Glo 2.0.

[4] = tested on: Huh7 hepatocellular carcinoma cells; conditions: 4 days, strongest with 0.37 μM daunorubicin and CRV431 1-4 μM
Description: as §1

## CC[C@@H]1NC(=O)[C@H]([C@H](O)[C@H](C)CCCCCCNC(C)=O)N(C)C(=O)[C@H](C(C)C)N(C)C(=O)[C@H](CC(C)C)N(C)C(=O)[C@H](CC(C)C)N(C)C(=O)[C@@H](C)NC(=O)[C@H](C)NC(=O)[C@H](CC(C)C)N(C)C(=O)[C@H](C(C)C)NC(=O)[C@H](CC(C)C)N(C)C(=O)[C@@H](C)N(C)C1=O [CRV431]
[1]
  RNA levels of inflammation and fibrosis markers by qRT-PCR: reductions in RNA levels of collagen1α1, αSMA, TIMP1, IL-6, and MCP-1; also recorded: decreased the mean daily secretion and gene expression of all markers
[2]; ELISA, with or without TGFβ stimulation
  procollagen and fibronectin secretion: dose-dependently decreased procollagen and fibronectin secretion from all cell types
[2]; clinically relevant concentrations
  cell viability: without causing any reduction in cell viability
[2]; clinically relevant concentrations, collagen and fibronectin
  decrease of ECM production: up to 55%
[3]
  effect on cytotoxicity of daunorubicin: increased the cytotoxicity of daunorubicin
[4]
  effect on cytotoxicity of daunorubicin: increased the cytotoxicity of daunorubicin
